Reference: patent US20260365653A1, “IRREVERSIBLE MUTEGFR INHIBITORS” (Bayer Aktiengesellschaft, priority 2022, published 2026)

Columns and labels:
[1] = system: BA/F3 (EGFR D770_N771 insSVD T790M) cells; test: Ba/F3-EGFR-insSVD T790M cell survival assay (Cell Titer-Glo); type: cell-based; settings: Ba/F3 EGFR-D770-N771ins_SVD, 48 h, Table 3a, cell survival, Cell Titer-Glo, with 10 ng/ml EGF, without IL-3
Protocol: Cellular Data Description (WT, insSVD, insSVD T790M) 293T cells from ATCC were transfected with pBABEpuro expression constructs for WT EGFR or EGFR-insSVD, or EGFR-insSVD T790M, and pCL-Eco packaging vector using Fugene-6 transfection reagent from Promega. Plates were incubated at 37° C. for 48 h. Retrovirus was harvested by filtering the media supernatant through a 0.45 μm filter.
Ba/F3 cells purchased from DSMZ were grown in RPMI+10% FBS+10 ng/ml IL-3 and infected with filtered retroviral supernatant at a 1:2 dilution. Polybrene was added to a concentration of 8 μg/mL, plates were spun for 90 min, and incubated for 16 h at 37° C. 2 μg/mL puromycin was added to the infected cells 24 h after infection and cells were continually grown in the presence of puromycin and 10 ng/ml IL-3. Following stably expressing Ba/F3 cell lines were generated: Ba/F3-EGFR-WT, Ba/F3-EGFR-insSVD, Ba/F3-EGFR-insSVD T790M, (Ba/F3-vector-control).
For cell survival assays, Ba/F3 cells were grown to a density of 1-2 million cells per mL, spun down and resuspended in media without IL-3, and replated at a concentration of 200,000-500,000 cells per mL. The cells ectopically expressing WT EGFR, EGFR-insSVD, or EGFR-insSVD T790M were plated with 10 ng/ml Millipore Culture grade EGF. The cells ectopically expressing pBABEpuro empty vector were plated with 10 ng/mL IL-3.
2 days later, cells were plated in 50 µL in a 384 well plate at a concentration of 4000 cells per well for cells assayed in the absence of IL-3 and 2000 cells per well for cells assayed in the presence of IL-3. 100 nL of compound was added to each well using a 100 nL pin head, and plates were incubated at 37° C. for 48 h.
Cell viability was measured by adding 20 μL of Cell Titer-Glo Luminescent Cell Viability Reagent diluted 1:3 in PBS. Plates were sealed with Perkin Elmer Top-Seal, inverted several times to mix, and immediately centrifuged at 1000 rpm for 2 min. Plates were incubated in low light conditions for 8-10 min and luminescence was measured.

[2] = target: T1, mutEGFR (D770_N771insSVD) (Homo sapiens, UniProt P00533, DUP768-770); test: Exon20-Mutant-EGFR (D770_N771insSVD) kinase assay (TR-FRET); type: biochemical; settings: mutEGFR (D770_N771insSVD) kinase assay IC50, Table 2a; D770_N771insSVD; 2 mM ATP
T1 construct: GST-EGFR #3 (SVD between D770 and N771); made in house; host or cells: Sf9 insect cells (baculovirus)

[3] = target: T2, mutEGFR (D770_N771insNPG, T790) (Homo sapiens, UniProt P00533, INS770NPG/T790M); test: mutEGFR (D770_N771insNPG, T790) kinase assay; type: biochemical; settings: Table 2a, D770_N771insNPG
T2 construct: exact insNPG construct not described; in-house EGFR proteins were N-terminal GST fusions from baculovirus/insect cells (borders R669-A1210 given only for WT, insSVD, insASV)
Source text: The different EGFR proteins used in the biochemical kinase activity inhibition assays were generated inhouse by expression in insect cells using Baculo Virus system and subsequent purification as described in the following paragraphs.
The cDNAs encoding the various protein sequences from human EGFR human (P00533) were optimized for expression in eukaryotic cells and synthesized by the GeneArt Technology at Life Technologies.

[4] = system: BA/F3 (insSVD) cells; test: Ba/F3-EGFR-insSVD cell survival assay (Cell Titer-Glo); type: cell-based; settings: Mus musculus, BaF3, 48 h, Table 3a, cell survival, Cell Titer-Glo, with 10 ng/ml EGF, without IL-3
In short: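 CellTiter-Glo luminescence read after 48 h compound exposure at 37° C. Cells: IL-3-independent Ba/F3 lines transduced with EGFR-insSVD or EGFR-insSVD T790M, maintained on 10 ng/ml EGF and seeded at 4000 per well.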

[5] = system: mutations in exons 18, 19, and 21 of EGFR; settings: cited from earlier work
[6] = system: EGFR exon20 insertions; settings: patients with EGFR exon20 insertions; cited from earlier work
[7] = system: wild-type EGFR; settings: cited from earlier work
[8] = background statement on approved drugs; cited from earlier work
[9] = system: classical activating EGFR mutations and brain metastasis; settings: EGFR mutant NSCLC; cited from earlier work
[10] = system: EGFR exon20 insertion mutations; settings: cited from earlier work
[11] = system: EGFR T790M; settings: T790M mutant patients; cited from earlier work

T1 sequence (P00533 with tags, fused parts or gaps DUP768-770): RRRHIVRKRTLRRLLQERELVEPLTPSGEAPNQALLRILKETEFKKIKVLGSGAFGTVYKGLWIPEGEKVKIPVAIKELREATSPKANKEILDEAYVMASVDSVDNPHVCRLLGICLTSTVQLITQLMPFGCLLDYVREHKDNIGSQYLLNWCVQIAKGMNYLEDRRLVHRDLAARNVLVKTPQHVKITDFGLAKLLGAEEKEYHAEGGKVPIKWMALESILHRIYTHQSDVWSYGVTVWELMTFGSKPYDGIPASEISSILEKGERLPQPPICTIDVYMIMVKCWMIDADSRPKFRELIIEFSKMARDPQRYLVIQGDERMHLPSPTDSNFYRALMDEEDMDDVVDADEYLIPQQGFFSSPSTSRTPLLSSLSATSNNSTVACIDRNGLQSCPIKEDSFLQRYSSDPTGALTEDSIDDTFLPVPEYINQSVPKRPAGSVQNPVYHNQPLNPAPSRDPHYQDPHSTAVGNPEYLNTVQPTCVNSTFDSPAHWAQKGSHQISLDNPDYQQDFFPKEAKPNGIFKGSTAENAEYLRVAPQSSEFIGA
T2 sequence (P00533 with tags, fused parts or gaps INS770NPG/T790M limits assumed): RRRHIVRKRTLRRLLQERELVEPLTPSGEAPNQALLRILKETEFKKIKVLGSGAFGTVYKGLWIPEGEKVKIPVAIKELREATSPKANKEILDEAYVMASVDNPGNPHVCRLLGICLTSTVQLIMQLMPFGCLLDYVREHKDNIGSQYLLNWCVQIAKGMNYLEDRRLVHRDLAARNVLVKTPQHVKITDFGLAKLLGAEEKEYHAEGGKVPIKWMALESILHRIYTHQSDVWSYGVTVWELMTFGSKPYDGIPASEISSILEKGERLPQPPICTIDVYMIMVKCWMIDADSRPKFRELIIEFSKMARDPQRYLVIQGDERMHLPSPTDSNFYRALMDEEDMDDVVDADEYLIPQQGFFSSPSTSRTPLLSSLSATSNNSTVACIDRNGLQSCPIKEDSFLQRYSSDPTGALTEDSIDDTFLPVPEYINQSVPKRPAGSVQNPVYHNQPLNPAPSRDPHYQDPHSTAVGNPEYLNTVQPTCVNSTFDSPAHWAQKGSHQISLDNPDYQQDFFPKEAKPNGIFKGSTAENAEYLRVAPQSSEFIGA

C=CC(=O)N1CCn2nc(-c3ccc(Cl)cc3F)c(-c3ccncc3)c2C1 [Example 37, 1-[2-(4-chloro-2-fluorophenyl)-3-(pyridin-4-yl)-6,7-dihydropyrazolo[1,5-a]pyrazin-5(4H)-yl]prop-2-en-1-one]
IC50 [1]: 104 nM | IC50 [2]: 0.258 nM | IC50 [3]: 0.658 nM | IC50 [4]: 7.14 nM

C=CC(=O)N1CCn2nc(-c3ccc(Cl)c(Cl)c3)c(-c3ccncc3)c2C1 [Example 40, 1-[2-(3,4-dichlorophenyl)-3-(pyridin-4-yl)-6,7-dihydropyrazolo[1,5-a]pyrazin-5(4H)-yl]prop-2-en-1-one]
IC50 [1]: 56 nM | IC50 [2]: 0.0982 nM | IC50 [3]: 0.148 nM | IC50 [4]: 14.9 nM

CN(C)CC#CC(=O)N1CCn2nc(-c3ccc(F)cc3)c(-c3ccncc3)c2C1 [Example 65, 4-(dimethylamino)-1-[2-(4-fluorophenyl)-3-(pyridin-4-yl)-6,7-dihydropyrazolo[1,5-a]pyrazin-5(4H)-yl]but-2-yn-1-one]
IC50 [1]: 1010 nM | IC50 [2]: 0.382 nM | IC50 [3]: 0.952 nM | IC50 [4]: 15.3 nM

C=CC(=O)N1CCn2nc(-c3ccc4sccc4c3)c(-c3ccncc3)c2C1 [Example 192, 1-[2-(1-benzothiophen-5-yl)-3-(pyridin-4-yl)-6,7-dihydropyrazolo[1,5-a]pyrazin-5(4H)-yl]prop-2-en-1-one]
IC50 [1]: 39.7 nM | IC50 [2]: < 0.0725 nM | IC50 [3]: 0.0916 nM | IC50 [4]: 148 nM

C=CC(=O)N1CCn2nc(-c3ccc4cc[nH]c4c3)c(-c3ccncc3)c2C1 [Example 195, 1-[2-(1H-indol-6-yl)-3-(pyridin-4-yl)-6,7-dihydropyrazolo[1,5-a]pyrazin-5(4H)-yl]prop-2-en-1-one]
IC50 [1]: 43.3 nM | IC50 [2]: 0.0825 nM | IC50 [3]: 0.219 nM | IC50 [4]: 8.9 nM

CN(C)C/C=C/C(=O)Nc1cc2c(Nc3ccc(F)c(Cl)c3)ncnc2cc1O[C@H]1CCOC1 [afatinib]
durability of response [5]: often not durable | efficacy in patients [5]: effective in patients | overall survival [6]: significantly reduced | progression-free survival [6]: significantly reduced | response rates [6]: particular low response rates | inhibition of wild-type EGFR [7]: potent inhibitors of wild-type EGFR

C#Cc1cccc(Nc2ncnc3cc(OCCOC)c(OCCOC)cc23)c1 [erlotinib]
durability of response [5]: often not durable | efficacy in patients [5]: effective in patients | overall survival [6]: significantly reduced | progression-free survival [6]: significantly reduced | response rates [6]: particular low response rates

COc1cc2ncnc(Nc3ccc(F)c(Cl)c3)c2cc1OCCCN1CCOCC1 [gefitinib]
durability of response [5]: often not durable | efficacy in patients [5]: effective in patients | overall survival [6]: significantly reduced | progression-free survival [6]: significantly reduced | response rates [6]: particular low response rates

C=CC(=O)Nc1cc(Nc2ncc(C(=O)OC(C)C)c(-c3cn(C)c4ccccc34)n2)c(OC)cc1N(C)CCN(C)C [mobocertinib, reference compound]
blood-brain-barrier permeability [8]: only limited blood-brain-barrier permeability

C=CC(=O)Nc1cc(Nc2nccc(-c3cn(C)c4ccccc34)n2)c(OC)cc1N(C)CCN(C)C [osimertinib]
CNS activity [9]: clearly improved CNS activity | activity on EGFR exon20 insertion mutations [10]: only limited activity | efficacy in patients [11]: effective in T790M mutant patients

amivantamab
blood-brain-barrier permeability [8]: only limited blood-brain-barrier permeability
